Experimental findings from PubChem BioAssay AID588565 (Sanford-Burnham Center for Chemical Genomics, 2011) are described below.

Structures are written as SMILES. Calls of active or inactive are those of the source.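 The calls were made as follows: active = cytotoxic at 24 hours, with mean IC50 of 20 µM or lower; inactive = the rest.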

As a reminder, the IC50 is the concentration needed to halve the response being measured.

The subject of this experiment is CHO-XBP1 cytotoxicity, ATPlite luminescence, 24 h. In words: cytotoxicity in CHO-XBP1 reporter cells, SAR follow-up, cytotoxicity control for UPR adaptive arm activator project, cell-based, 24 h exposure, ATPlite luminescence (AID 588565).
For `O=C(Nc1ccc(Br)c(C(F)(F)F)c1)c1cc(-c2ccncc2)nc2ccccc12`, the IC50 was > 80 µM (inactive). For `Cc1nc(Nc2nc(-c3ccccc3)cc(=O)[nH]2)nc2ccccc12` the value was > 80 µM (inactive); for `O=C(Nc1ccc(C(F)(F)F)cc1)c1cc(-c2ccncc2)nc2ccccc12`, > 80 µM (inactive); for `Cc1cc(Br)cc(NC(=O)c2cc(-c3ccncc3)nc3ccccc23)c1`, > 80 µM (inactive). For `Cc1ccc(NC(=O)c2cc(-c3ccncc3)nc3ccccc23)cc1`, the IC50 was > 80 µM (inactive). Under `O=C(Nc1ccc(F)cc1)c1cc(-c2ccncc2)nc2ccccc12` stands > 80 µM (inactive); under `O=C(Nc1ccc(Cl)cc1)c1cc(-c2ccncc2)nc2ccccc12`, 64 µM (inactive).
